Assay [1] in a line: HEK293T viability loss – cell-based, ATP luminescence, dry powder, Set6, cytotoxicity control, dose response (AID 743142). The following applies: HEK293T viability, ATP luminescence (CellTiter-Glo), 72 h.
The test system of assay [2] is HEK293T viability, ATP luminescence (CellTiter-Glo), 72 h. The description is as above.

Results filed as inconclusive are left out. Activity calls are given as the source filed them.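 Rule for the calls: active = sample lowering the cell viability signal whose fitted half-effect dose is at or below its top tested dose; inconclusive = flat fit with 30 to 70 percent loss, or poor fit; inactive = the rest, including effects in the wrong direction.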

On to `C[C@@H](NC(=O)CCNC(=O)c1ccc(Cl)cc1)c1ccccc1`, for which the activity change, negative = cytotoxicity in assay [1] (at 26 µM (top of the series)) is 19.9% (inactive).

For `O=C(CCCNC(=O)c1ccc(OC(F)(F)F)cc1)N[C@@H]1CCCc2ccccc21`, the activity change, negative = cytotoxicity in assay [1] (at 26 µM (top of the series)) was 48.5% (inactive).

`COc1ccccc1C(=O)NCCC(=O)NC1CCCc2ccccc21` (stereo unspecified): the activity change, negative = cytotoxicity in assay [1] (at 26 µM (top of the series)) is -2.09% (inactive).

As to `O=C(CCNC(=O)c1ccccc1)N[C@@H]1CCCc2ccccc21`, the activity change, negative = cytotoxicity in assay [1] (at 26 µM (top of the series)) was -39.6% (inactive).

For `O=C(CNC(=O)c1ccc(C(F)(F)F)cc1)N[C@@H]1CCCc2ccccc21`, the activity change, negative = cytotoxicity in assay [1] (at 26 µM (top of the series)) is -8.54% (inactive).

`CC(CC(=O)NC1CCCc2ccccc21)NC(=O)c1ccccc1` (stereo unspecified): the activity change, negative = cytotoxicity in assay [1] (at 26 µM (top of the series)) is -38.5% (inactive).

Consider `O=C(CCNC(=O)c1ccc(Cl)cc1)NC1CCCCC1`, for which the activity change, negative = cytotoxicity in assay [1] (at 26 µM (top of the series)) was 13% (inactive).

For the compound `O=C(NC1CCc2ccccc21)C1CCCN(C(=O)c2ccc(Cl)cc2)C1` (stereo unspecified), the activity change, negative = cytotoxicity in assay [1] (at 26 µM (top of the series)) is -34.8% (inactive).

As for `CC(C)(C)OC(=O)NCCC(=O)N[C@@H]1CCCc2ccccc21`, the activity change, negative = cytotoxicity in assay [1] (at 26 µM (top of the series)) is -2.95% (inactive).

As to `CC(NC(=O)CCNC(=O)c1ccc(Cl)cc1)c1ccc(F)cc1` (stereo unspecified), the activity change, negative = cytotoxicity in assay [1] (at 12 µM (top of the series)) is 41.6% (inactive).

Turning to `NCCC(=O)N[C@@H]1CCCc2ccccc21`, in assay [1] (at 26 µM (top of the series)), the activity change, negative = cytotoxicity is 27.3% (inactive).

Regarding `O=C(CCCNC(=O)c1ccc(C(F)(F)F)cc1)N[C@@H]1CCCc2ccccc21`, the activity change, negative = cytotoxicity in assay [1] (at 26 µM (top of the series)) was 49.1% (inactive).

Turning to `O=C(CNC(=O)c1ccc(Cl)cc1)N[C@@H]1CCCc2ccccc21`, the activity change, negative = cytotoxicity in assay [1] (at 26 µM (top of the series)) is -4.76% (inactive).

As to `O=C(CCCNC(=O)c1ccc(Cl)cc1)N[C@@H]1CCCc2ccccc21`, the activity change, negative = cytotoxicity in assay [1] (at 26 µM (top of the series)) is 2.4% (inactive).

Regarding `COc1ccccc1C(C)NC(=O)CCNC(=O)c1ccc(Cl)cc1` (stereo unspecified), in assay [1] (at 26 µM (top of the series)), the activity change, negative = cytotoxicity was -9.14% (inactive).

Consider `CC(=O)NCCC(=O)N[C@@H]1CCCc2ccccc21`, for which the activity change, negative = cytotoxicity in assay [1] (at 26 µM (top of the series)) was 10.6% (inactive).

For the compound `O=C(CCNC(=O)c1ccc(Cl)cc1)NC1CCCc2ccccc21` (stereo unspecified), in assay [2], the concentration at half-maximal activity (AC50) was 7.73 µM.

Consider `O=C(CCCNC(=O)c1ccc(Cl)c(Cl)c1)N[C@@H]1CCCc2ccccc21`, for which, in assay [1] (at 26 µM (top of the series)), the activity change, negative = cytotoxicity is 8.38% (inactive).

Turning to `O=C(CCNC(=O)c1ccc(Cl)cc1)N[C@H]1CCCc2ccccc21`, in assay [1] (at 26 µM (top of the series)), the activity change, negative = cytotoxicity was -23.6% (inactive).

`O=C(CCNC(=O)c1ccccc1Cl)NC1CCCc2ccccc21` (stereo unspecified): the activity change, negative = cytotoxicity in assay [1] (at 26 µM (top of the series)) was 10.9% (inactive).

For `CC(NC(=O)CCNC(=O)c1ccc(Cl)cc1)c1ccc2c(c1)OCO2` (stereo unspecified), in assay [1] (at 26 µM (top of the series)), the activity change, negative = cytotoxicity was 21.1% (inactive).

Turning to `O=C(NC1CCOc2ccccc21)C1CCCN(C(=O)c2ccc(Cl)cc2)C1` (stereo unspecified), in assay [1] (at 26 µM (top of the series)), the activity change, negative = cytotoxicity is -5.89% (inactive).

Take `CC(NC(=O)C1CCCN(C(=O)c2ccc(Cl)cc2)C1)c1ccccc1` (stereo unspecified): the activity change, negative = cytotoxicity in assay [1] (at 26 µM (top of the series)) was 64.4% (inactive).

For `CC(C)(C)OC(=O)NCCC(=O)N[C@H]1CCCc2ccccc21`, the activity change, negative = cytotoxicity in assay [1] (at 26 µM (top of the series)) is -17.3% (inactive).

Regarding `CN(C(=O)CCNC(=O)c1ccc(F)cc1F)C1CCCc2ccccc21` (stereo unspecified), in assay [1] (at 26 µM (top of the series)), the activity change, negative = cytotoxicity was 7.5% (inactive).

Consider `COc1cc(C(=O)NCCC(=O)NC2CCCc3ccccc32)cc(OC)c1OC` (stereo unspecified), for which, in assay [1] (at 26 µM (top of the series)), the activity change, negative = cytotoxicity was -40.5% (inactive).

On to `O=C(CNC(=O)c1ccc(OC(F)(F)F)cc1)N[C@@H]1CCCc2ccccc21`, for which, in assay [1] (at 26 µM (top of the series)), the activity change, negative = cytotoxicity was 1.28% (inactive).

Regarding `CC(c1ccccc1)N(C)C(=O)CCNC(=O)c1ccc(Cl)cc1` (stereo unspecified), in assay [1] (at 26 µM (top of the series)), the activity change, negative = cytotoxicity was -5.44% (inactive).

Regarding `CC(CC(=O)N(C)C1CCCc2ccccc21)NC(=O)c1ccccc1` (stereo unspecified), the activity change, negative = cytotoxicity in assay [1] (at 26 µM (top of the series)) was -30% (inactive).

For the compound `O=C(CNC(=O)c1ccc(Cl)c(Cl)c1)N[C@@H]1CCCc2ccccc21`, in assay [1] (at 26 µM (top of the series)), the activity change, negative = cytotoxicity is -24.4% (inactive).

For the compound `Cc1cccc(C(=O)NCCC(=O)NC2CCCc3ccccc32)c1` (stereo unspecified), the activity change, negative = cytotoxicity in assay [1] (at 26 µM (top of the series)) is -15.8% (inactive).

The values above are taken from PubChem BioAssay AID743142 (Broad Institute, 2013).
